Holding throughout (format): cell-based
Assay [1] has as its target T1, D(1A) dopamine receptor (Homo sapiens, UniProt P21728). The assay can be described thus: Displacement of [3H]SCH23390 from dopamine D1 receptor expressed in HEK293 cells at 10 uM after 50 mins by beta liquid scintillation counter.
The target in assay [2] is T2, D(2) dopamine receptor (Homo sapiens, UniProt P14416). The experiment in a line: Displacement of [3H]spiperone from dopamine D2 receptor expressed in HEK293 cells at 10 uM after 50 mins by beta liquid scintillation counter.
For assay [3], the target named is T2, D(2) dopamine receptor. The assay can be described thus: Displacement of [3H]spiperone from dopamine D2 receptor expressed in HEK293 cells after 50 mins by beta liquid scintillation counter. In general terms: Loss of bound radioactivity is the signal in a displacement assay; it reports binding, not function.
For assay [4], the target named is T3, 5-hydroxytryptamine receptor 2A (Homo sapiens, UniProt P28223). The experiment in a line: Displacement of [3H]ketanserin from 5-HT2A receptor expressed in CHO cells at 10 uM after 50 mins by beta liquid scintillation counter.
Assay [5] deals with T4, 5-hydroxytryptamine receptor 1A (Homo sapiens, UniProt P08908).
T4 sequence (P08908 whole entry): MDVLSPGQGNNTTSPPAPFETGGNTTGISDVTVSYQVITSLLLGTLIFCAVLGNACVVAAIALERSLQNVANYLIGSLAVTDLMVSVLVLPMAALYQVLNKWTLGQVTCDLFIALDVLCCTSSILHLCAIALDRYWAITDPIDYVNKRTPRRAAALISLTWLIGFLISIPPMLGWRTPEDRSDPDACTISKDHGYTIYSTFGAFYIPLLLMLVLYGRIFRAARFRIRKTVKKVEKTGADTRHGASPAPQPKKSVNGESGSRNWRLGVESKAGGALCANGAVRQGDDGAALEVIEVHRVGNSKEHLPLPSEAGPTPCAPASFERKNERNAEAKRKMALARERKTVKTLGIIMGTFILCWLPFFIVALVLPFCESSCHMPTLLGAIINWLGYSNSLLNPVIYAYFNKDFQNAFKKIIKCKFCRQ
The experiment in a line: Displacement of [3H]-8-OH-DPAT from 5-HT1A receptor expressed in CHO cells after 50 mins by beta liquid scintillation counter.

In assay [6] the target is T1, D(1A) dopamine receptor. The experiment in a line: Displacement of [3H]SCH23390 from dopamine D1 receptor expressed in HEK293 cells after 50 mins by beta liquid scintillation counter.
Assay [7] concerns the target T3, 5-hydroxytryptamine receptor 2A. The experiment in a line: Displacement of [3H]ketanserin from 5-HT2A receptor expressed in CHO cells after 50 mins by beta liquid scintillation counter.

In general, inhibition refers to the relative decrease from the control value, in per cent. The low end stands for a response near the control, the high end for a response far below the control. For orientation: Ki means the equilibrium dissociation constant of an inhibitor or competing ligand from its target. A higher Ki goes with lower affinity.

T3 sequence (P28223 whole entry): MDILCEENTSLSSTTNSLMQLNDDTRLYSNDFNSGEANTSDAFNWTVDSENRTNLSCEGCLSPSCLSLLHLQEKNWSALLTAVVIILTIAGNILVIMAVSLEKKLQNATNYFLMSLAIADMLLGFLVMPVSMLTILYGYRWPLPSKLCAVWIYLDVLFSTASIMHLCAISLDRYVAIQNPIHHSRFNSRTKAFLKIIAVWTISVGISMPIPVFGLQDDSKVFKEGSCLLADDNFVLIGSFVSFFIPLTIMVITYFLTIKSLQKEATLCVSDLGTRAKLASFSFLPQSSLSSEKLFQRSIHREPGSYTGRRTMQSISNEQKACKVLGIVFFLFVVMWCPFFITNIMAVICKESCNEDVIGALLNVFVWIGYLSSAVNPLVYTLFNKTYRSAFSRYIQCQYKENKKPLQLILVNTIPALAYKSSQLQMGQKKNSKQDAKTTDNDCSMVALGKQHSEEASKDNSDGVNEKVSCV
T2 sequence (P14416 whole entry): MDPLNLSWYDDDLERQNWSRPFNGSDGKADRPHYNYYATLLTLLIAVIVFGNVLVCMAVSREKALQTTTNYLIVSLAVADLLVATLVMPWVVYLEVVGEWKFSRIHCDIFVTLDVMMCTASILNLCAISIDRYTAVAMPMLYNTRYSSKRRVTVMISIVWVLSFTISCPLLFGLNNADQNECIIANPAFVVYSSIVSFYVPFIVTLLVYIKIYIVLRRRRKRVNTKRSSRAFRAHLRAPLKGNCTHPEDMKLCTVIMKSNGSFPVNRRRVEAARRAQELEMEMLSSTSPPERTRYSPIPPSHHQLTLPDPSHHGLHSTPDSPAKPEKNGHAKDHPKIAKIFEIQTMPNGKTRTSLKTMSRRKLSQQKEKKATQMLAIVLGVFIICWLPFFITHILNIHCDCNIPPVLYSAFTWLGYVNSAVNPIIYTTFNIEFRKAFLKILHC
T1 sequence (P21728 whole entry): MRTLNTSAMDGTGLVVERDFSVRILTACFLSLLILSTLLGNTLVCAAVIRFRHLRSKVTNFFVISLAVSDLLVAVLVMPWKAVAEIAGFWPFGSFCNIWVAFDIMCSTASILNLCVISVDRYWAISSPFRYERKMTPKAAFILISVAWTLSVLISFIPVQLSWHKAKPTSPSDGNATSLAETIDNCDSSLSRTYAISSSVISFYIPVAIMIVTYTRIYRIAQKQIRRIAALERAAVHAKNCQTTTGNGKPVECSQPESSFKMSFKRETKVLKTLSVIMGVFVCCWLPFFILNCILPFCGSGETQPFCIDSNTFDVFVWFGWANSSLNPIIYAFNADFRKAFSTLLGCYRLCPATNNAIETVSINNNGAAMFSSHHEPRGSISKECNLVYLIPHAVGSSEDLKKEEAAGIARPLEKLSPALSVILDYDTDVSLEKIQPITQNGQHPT

Turning to `CCCN1CCc2cccc3c2C1Cc1cccc(CNC(=O)NCC)c1-3` (racemic), the inhibition was determined as 35.4% at D(1A) dopamine receptor [1] and 15.7% at D(2) dopamine receptor [2].

As to `CCCN1CCc2cccc3c2C1Cc1cccc(CNC(=S)CCCCC2CCSS2)c1-3` (racemic), the inhibition turned out to be 11.4% on D(1A) dopamine receptor [1] and 3.1% at D(2) dopamine receptor [2].

`CCCN1CCc2cccc3c2C1Cc1cccc(OC(=O)CSc2ccccc2)c1-3` (racemic) yielded an inhibition at D(1A) dopamine receptor [1] of 67.1%. In addition, the inhibition constant Ki at D(2) dopamine receptor [3] was determined as 851 nM.

For the compound `CCCN1CCc2cccc3c2[C@H]1Cc1cccc(OC(=O)NCC)c1-3`, the inhibition is 54.6% on D(1A) dopamine receptor [1], 14.5% in assay [4] and 44.3% at D(2) dopamine receptor [2]. Besides, in assay [5], the inhibition constant (Ki) turned out to be 94 nM.

In the case of `CCCCNC(=O)Oc1cccc2c1-c1cccc3c1C(C2)N(CCC)CC3` (racemic), the inhibition on D(1A) dopamine receptor [1] came to 36.5%; in assay [4], 37.4%; on D(2) dopamine receptor [2], 53.2%. The compound also came in with a Ki in assay [5] of 385 nM.

On to `CCCN1CCc2cccc3c2C1Cc1cccc(OC(=O)CCCCC2CCSS2)c1-3` (racemic), for which the results for the inhibition (at D(1A) dopamine receptor [1]; in assay [4]; at D(2) dopamine receptor [2]) were 62.7%, 14.7% and 55.2%, respectively. The compound further yielded a Ki in assay [5] of 137 nM.

In the case of `CCCN1CCc2cccc3c2[C@H]1Cc1cccc(O)c1-3`, the inhibition is 63.2% at D(1A) dopamine receptor [1] and 63% in assay [4].

`CCCN1CCc2cccc3c2[C@H]1Cc1cccc(OC(=O)CCCC[C@@H]2CCSS2)c1-3` yielded an inhibition on D(1A) dopamine receptor [1] of 69.6%. Moreover, the Ki at D(2) dopamine receptor [3] was 296 nM; in assay [5], 45 nM.

As for `CCCN1CCc2cccc3c2[C@H]1Cc1cccc(OC(=O)NCc2ccccc2)c1-3`, the Ki at D(1A) dopamine receptor [6] stood at 2.4 µM; on D(2) dopamine receptor [3], 2200 nM; in assay [5] it was 90 nM. In assay [4], the inhibition was found to be 76.6%.

Regarding `CCCN1CCc2cccc3c2C1Cc1cccc(-c2noc(CCCCC4CCSS4)n2)c1-3` (racemic), the inhibition at D(1A) dopamine receptor [1] was determined as 57%; at D(2) dopamine receptor [2] it was 19.5%.

For `CCCN1CCc2cccc3c2C1Cc1cccc(OC(=O)Nc2cccc4ccccc24)c1-3` (stereo not given), the figures for the inhibition (at D(1A) dopamine receptor [1]; in assay [4]) were 48% and 21.7%, respectively. The Ki at D(2) dopamine receptor [3] stood at 2000 nM; in assay [5], 124 nM.

For the compound `CCCN1CCc2cccc3c2C1Cc1cccc(O)c1-3` (racemic), the inhibition on D(1A) dopamine receptor [1] was found to be 55.9%; in assay [4], 14.1%. This compound came in with a Ki in assay [5] of 66 nM.

For the compound `CCCN1CCc2cccc3c2[C@H]1Cc1cccc(OC(=O)CCCC[C@H]2CCSS2)c1-3`, the inhibition at D(1A) dopamine receptor [1] is 64.8%. The inhibition constant (Ki) at D(2) dopamine receptor [3] turned out to be 342 nM; in assay [5] it was 35 nM.

As for `CCCCNC(=O)Oc1cccc2c1-c1cccc3c1[C@@H](C2)N(CCC)CC3`, the inhibition was found to be 53.6% on D(1A) dopamine receptor [1], 34.9% in assay [4] and 40.9% at D(2) dopamine receptor [2]. The compound also yielded an inhibition constant (Ki) in assay [5] of 89 nM.

On to `CCCC(=O)Oc1cccc2c1-c1cccc3c1[C@@H](C2)N(CCC)CC3`, for which the inhibition on D(1A) dopamine receptor [1] is 63.2%; in assay [4], 68%. For the same compound, the inhibitory constant (Ki) on D(2) dopamine receptor [3] was 55.5 nM; in assay [5] it was 11.9 nM.

As for `CCCN1CCc2cccc3c2C1Cc1cccc(OC(=O)NCc2ccccc2)c1-3` (racemic), the Ki in assay [7] was determined as 2000 nM; at D(1A) dopamine receptor [6] it was 4.2 µM; on D(2) dopamine receptor [3], 4300 nM; in assay [5], 259 nM.

Take `CCCNC(=O)Oc1cccc2c1-c1cccc3c1[C@@H](C2)N(CCC)CC3`: the inhibition at D(1A) dopamine receptor [1] worked out at 56.3%; in assay [4] it was 16%; at D(2) dopamine receptor [2] it was 50.9%. This compound also showed a Ki in assay [5] of 87 nM.

On to `CCCN1CCc2cccc3c2C1Cc1cccc(CNC(=O)CCCCC2CCSS2)c1-3` (racemic), for which the inhibition at D(1A) dopamine receptor [1] came to 32.4%; at D(2) dopamine receptor [2], 9.6%.

With `CCCC(=O)Nc1cccc2c1-c1cccc3c1[C@@H](C2)N(CCC)CC3`, the inhibition at D(1A) dopamine receptor [1] was 16.1%; in assay [4] it was 16.6%; on D(2) dopamine receptor [2], 13.5%. The same compound yielded a Ki in assay [5] of 380 nM.

`CCCN1CCc2cccc3c2[C@H]1Cc1cccc(NC(=O)CCCCC2CCSS2)c1-3` (stereo not given in full): the figures for the inhibition (at D(1A) dopamine receptor [1]; in assay [4]; at D(2) dopamine receptor [2]) were 27.2%, 36.9% and 33.1%, respectively. Besides, the affinity in assay [5], expressed as Ki, was 249 nM.

For the compound `CCCN1CCc2cccc3c2C1Cc1cccc(OC(=O)NCC)c1-3` (racemic), the inhibition came out at 46.1% on D(1A) dopamine receptor [1], 19.8% in assay [4] and 56.7% on D(2) dopamine receptor [2]. For the same compound, the Ki in assay [5] worked out at 218 nM.

As for `CCCN1CCc2cccc3c2[C@H]1Cc1cccc(OC(=O)NC(C)(C)C)c1-3`, the inhibition at D(1A) dopamine receptor [1] turned out to be 70.2%; in assay [4], 29.2%. The Ki at D(2) dopamine receptor [3] was determined as 871 nM; in assay [5], 96 nM.

As for `CCCNC(=O)Oc1cccc2c1-c1cccc3c1C(C2)N(CCC)CC3` (racemic), the inhibition at D(1A) dopamine receptor [1] was found to be 26.2%; in assay [4] it was 30.1%; on D(2) dopamine receptor [2], 52.7%. Moreover, the affinity in assay [5], expressed as Ki, was 258 nM.

As to `CCCN1CCc2cccc3c2C1Cc1cccc(OC(=O)NC(C)(C)C)c1-3` (racemic), the inhibition amounted to 44.2% at D(1A) dopamine receptor [1] and 20% in assay [4]. Besides, the inhibitory constant (Ki) at D(2) dopamine receptor [3] worked out at 2800 nM; in assay [5], 217 nM.

As to `CCCN1CCc2cccc3c2[C@H]1Cc1cccc(N)c1-3`, the inhibition came to 57.1% on D(1A) dopamine receptor [1] and 49.4% in assay [4]. The Ki on D(2) dopamine receptor [3] was found to be 352 nM; in assay [5] it was 276 nM.
